Reference: BindingDB's records for doi:10.1021/jm701199p (Eli Lilly, 2008)

Target: T1, TGF-beta receptor type-1 [4-503,T204D] (Homo sapiens, UniProt P36897, T204D)
T1 construct: 4-503
Assay: Enzyme Assay and Luciferase Reporter Assay
Conditions: pH 7.5; 30 °C

| EC50 | Compound |
| --- | --- |
| 15000 nM | CN(C)C(=O)c1ccc(Oc2ccc3c(-c4c(-c5ccccn5)nn5c4CCC5)ccnc3c2)cc1 [N,N-dimethyl-4-({4-[2-(pyridin-2-yl)-4H,5H,6H-pyrrolo[1,2-a]pyrazol-3-yl]quinolin-7-yl}oxy)benzamide] |
| > 20000 nM | c1ccc(-c2nn3c(c2-c2cc(N4CCCC4)nc4ccccc24)CCC3)nc1 [4-[2-(pyridin-2-yl)-4H,5H,6H-pyrrolo[1,2-a]pyrazol-3-yl]-2-(pyrrolidin-1-yl)quinoline] |
| 951 nM | Cc1cccc(-c2nn3c(c2-c2ccnc4c(F)cccc24)CCC3)n1 [8-fluoro-4-[2-(6-methylpyridin-2-yl)-4H,5H,6H-pyrrolo[1,2-a]pyrazol-3-yl]quinoline] |
| 66 nM | ClCCOc1ccc2c(-c3c(-c4ccccn4)nn4c3CCC4)ccnc2c1 [7-(2-chloroethoxy)-4-[2-(pyridin-2-yl)-4H,5H,6H-pyrrolo[1,2-a]pyrazol-3-yl]quinoline] |
| 403 nM | COC(=O)c1ccc2nccc(-c3c(-c4cccc(C)n4)nn4c3CCC4)c2c1 [methyl 4-[2-(6-methylpyridin-2-yl)-4H,5H,6H-pyrrolo[1,2-a]pyrazol-3-yl]quinoline-6-carboxylate] |
| 201 nM | Cc1cccc(-c2nn3c(c2-c2ccnc4ccc(OC(F)(F)F)cc24)CCC3)n1 [4-[2-(6-methylpyridin-2-yl)-4H,5H,6H-pyrrolo[1,2-a]pyrazol-3-yl]-6-(trifluoromethoxy)quinoline] |
| > 20000 nM | O=C(O)c1ccc(Oc2ccc3c(-c4c(-c5ccccn5)nn5c4CCC5)ccnc3c2)cc1 [4-({4-[2-(pyridin-2-yl)-4H,5H,6H-pyrrolo[1,2-a]pyrazol-3-yl]quinolin-7-yl}oxy)benzoic acid] |
| 80 nM | c1ccc(-c2nn3c(c2-c2ccnc4cc(OCC5CCCO5)ccc24)CCC3)nc1 (stereo not given) [7-(oxolan-2-ylmethoxy)-4-[2-(pyridin-2-yl)-4H,5H,6H-pyrrolo[1,2-a]pyrazol-3-yl]quinoline] |
| > 20000 nM | CCSc1cc(-c2c(-c3ccccn3)nn3c2CCC3)c2ccccc2n1 [2-(ethylsulfanyl)-4-[2-(pyridin-2-yl)-4H,5H,6H-pyrrolo[1,2-a]pyrazol-3-yl]quinoline] |
| 7200 nM | COc1cc(OC)c2nccc(-c3c(-c4cccc(C)n4)nn4c3CCC4)c2c1 [6,8-dimethoxy-4-[2-(6-methylpyridin-2-yl)-4H,5H,6H-pyrrolo[1,2-a]pyrazol-3-yl]quinoline] |
| 468 nM | Cc1cccc(-c2nn3c(c2-c2ccnc4ccc(C(=O)NCCN(C)C)cc24)CCC3)n1 [N-[2-(dimethylamino)ethyl]-4-[2-(6-methylpyridin-2-yl)-4H,5H,6H-pyrrolo[1,2-a]pyrazol-3-yl]quinoline-6-carboxamide] |
| 200 nM | Oc1ccc2c(-c3c(-c4ccccn4)nn4c3CCC4)ccnc2c1 [4-[2-(pyridin-2-yl)-4H,5H,6H-pyrrolo[1,2-a]pyrazol-3-yl]quinolin-7-ol] |
| > 20000 nM | Clc1cc(-c2c(-c3ccccn3)nn3c2CCC3)c2ccccc2n1 [2-chloro-4-[2-(pyridin-2-yl)-4H,5H,6H-pyrrolo[1,2-a]pyrazol-3-yl]quinoline] |
| 55 nM | Cc1cccc(-c2nn3c(c2-c2ccnc4ccc(Br)cc24)CCC3)n1 [6-bromo-4-[2-(6-methylpyridin-2-yl)-4H,5H,6H-pyrrolo[1,2-a]pyrazol-3-yl]quinoline] |
| 24 nM | CN(C)CCCCCOc1ccc2c(-c3c(-c4ccccn4)nn4c3CCC4)ccnc2c1 [dimethyl[5-({4-[2-(pyridin-2-yl)-4H,5H,6H-pyrrolo[1,2-a]pyrazol-3-yl]quinolin-7-yl}oxy)pentyl]amine] |
| 61 nM | CCN(C)CCOc1ccc2c(-c3c(-c4ccccn4)nn4c3CCC4)ccnc2c1 [ethyl(methyl)[2-({4-[2-(pyridin-2-yl)-4H,5H,6H-pyrrolo[1,2-a]pyrazol-3-yl]quinolin-7-yl}oxy)ethyl]amine] |

| Compound | EC50 |
| --- | --- |
| CN1CCCC1CCCOc1ccc2c(-c3c(-c4ccccn4)nn4c3CCC4)ccnc2c1 (stereo not given) [7-[3-(1-methylpyrrolidin-2-yl)propoxy]-4-[2-(pyridin-2-yl)-4H,5H,6H-pyrrolo[1,2-a]pyrazol-3-yl]quinoline] | 17 nM |
| CN1CCN(CCOc2ccc3c(-c4c(-c5ccccn5)nn5c4CCC5)ccnc3c2)CC1 [7-[2-(4-methylpiperazin-1-yl)ethoxy]-4-[2-(pyridin-2-yl)-4H,5H,6H-pyrrolo[1,2-a]pyrazol-3-yl]quinoline] | 38 nM |
| CN1CCN(C(=O)COc2ccc3c(-c4c(-c5ccccn5)nn5c4CCC5)ccnc3c2)CC1 [1-(4-methylpiperazin-1-yl)-2-({4-[2-(pyridin-2-yl)-4H,5H,6H-pyrrolo[1,2-a]pyrazol-3-yl]quinolin-7-yl}oxy)ethan-1-one] | 260 nM |
| CN1CCN(CCCOc2ccc3c(-c4c(-c5ccccn5)nn5c4CCC5)ccnc3c2)CC1 [7-[3-(4-methylpiperazin-1-yl)propoxy]-4-[2-(pyridin-2-yl)-4H,5H,6H-pyrrolo[1,2-a]pyrazol-3-yl]quinoline] | 44 nM |
